In patent US6461997B1, “Triazole sulfones having herbicidal activity” (Monsanto Technology LLC, priority 1999, dated 2002):

Legend:
SETFA (giant foxtail) = test: Pre-emergence herbicidal activity, warm season; assay type: in vivo, Setaria faberi; conditions: GR80 = lowest tested rate (300, 100, 30, 10 g/ha) with 80% or greater inhibition; approx. 14 days after treating; 30/21° C.
Summary of the method: (§1)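 GR80 values derive from percent inhibition relative to untreated plants, read roughly 14 days after sowing and pre-emergence soil-surface treatment (compound in 50:50 acetone/water; rates typically 10, 30, 100, 300 g/ha). Warm-season weeds grew at 30/21° C day/night, cool-season ones at 18/13° C; an asterisk marks activity without reaching 80% at the highest rate.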

PANDI (fall panicum) = test: Pre-emergence herbicidal activity, warm season; assay type: in vivo, Panicum dichotomiflorum; conditions: GR80 = lowest tested rate (300, 100, 30, 10 g/ha) with 80% or greater inhibition; approx. 14 days after treating; 30/21° C.
Experimental: (§2) Tables 5 to 8 summarize results of tests conducted as described below to determine the pre-emergence herbicidal activity, in the form of a GR80 value, of illustrative compounds of this invention. […] Compounds of the invention were typically applied at rates of 300, 100, 30, and 10 g/ha. Where herbicidal activity was evident but 80% inhibition was not achieved at the highest rate tested, an asterisk (*) is shown in the following tables.
(§3) The pre-emergence tests were conducted by the following procedure. Topsoil was sieved to pass through a 1.27 cm screen. Fertilizer was added to the topsoil and the mixture was then sterilized by heating. The topsoil mixture was placed in a pot and compacted to a depth of 1.0 to 1.25 cm from the top of the pot. Seeds of each of several monocotyledonous and dicotyledonous annual plant species were placed on top of the soil. Additional soil was subsequently placed over the seeds to level-fill the pot. A known amount of each test compound dissolved or suspended in an appropriate organic solvent was diluted with a 50:50 mix of acetone and water and applied to the surface of the soil. After treatment the plants were placed in a greenhouse where they received 0.64 cm of overhead irrigation. All subsequent watering consisted of a light overhead mist and/or subirrigation as needed for germination and growth. Tables 5 and 6 below relate to warm season plant species which were placed after pre-emergence treatment in a greenhouse with a 30/21° C. day/night temperature regime. Tables 7 and 8 below relates to cool season plant species placed after pre-emergence treatment in a greenhouse or growth chamber with an 18/13° C. day/night temperature regime.
(§4) Approximately 14 days after planting and treating, the plants were observed and herbicidal efficacy recorded as percent inhibition by comparison with untreated plants.
(§5) The plant species usually regarded as weeds which were utilized in the tests are identified in the tables below according to the following legend, in which “d” indicates a dicotyledonous species and “m” a monocotyledonous species. All monocotyledonous species included in the tests herein are grasses.

[1] = test system: PANMI (wild proso millet); test: Pre-emergence herbicidal activity, warm season; assay type: in vivo, Panicum miliaceum; conditions: GR80 = lowest tested rate (300, 100, 30, 10 g/ha) with 80% or greater inhibition; approx. 14 days after treating; 30/21° C.
Summary of the method: (§6)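 Seeds were sown in sterilized, fertilized topsoil, covered, and the soil surface was sprayed with compound in 50:50 acetone/water at 300, 100, 30 and 10 g/ha. Pots were held at 30/21 °C day/night (PANMI, DIGSA) or 18/13 °C (ALOMY, POLCO). GR80 came from percent inhibition versus untreated plants at about 14 days.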

[2] = test system: LAMPU (purple deadnettle); test: Pre-emergence herbicidal activity, cool season; assay type: in vivo, Lamium purpureum; conditions: lowest tested rate with 80% or greater inhibition; rates 300, 100, 30, 10 g/ha; about 14 days
Summary of the method: (§7)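 Seeds sown in sterilised fertilised topsoil received surface-applied compound in 50:50 acetone/water, typically at 300, 100, 30 and 10 g/ha, then greenhouse-grown at 30/21° C (warm-season species) or 18/13° C (cool-season species). Percent inhibition versus untreated plants was scored at about 14 days, giving GR80; an asterisk marks activity short of 80% at the top rate.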

[3] = test system: AGSST (creeping bentgrass); test: Pre-emergence herbicidal activity, cool season; assay type: in vivo, Agrostis stolonifera; conditions: GR80 = lowest tested rate (300, 100, 30, 10 g/ha) with 80% or greater inhibition; approx. 14 days after treating; 18/13° C.
Summary of the method: as §7

SASKR (russian thistle) = test: Pre-emergence herbicidal activity, cool season; assay type: in vivo, Salsola kali; conditions: lowest tested rate with 80% or greater inhibition; rates 300, 100, 30, 10 g/ha; about 14 days
Summary of the method: as §7

[4] = test system: GALAP (catchweed bedstraw); test: Pre-emergence herbicidal activity, cool season; assay type: in vivo, Galium aparine; conditions: lowest tested rate with 80% or greater inhibition; rates 300, 100, 30, 10 g/ha; about 14 days
Summary of the method: as §7

STEME (common chickweed) = test: Pre-emergence herbicidal activity, cool season; assay type: in vivo, Stellaria media; conditions: lowest tested rate with 80% or greater inhibition; rates 300, 100, 30, 10 g/ha; about 14 days
Summary of the method: as §7

SINAR (wild mustard) = test: Pre-emergence herbicidal activity, cool season; assay type: in vivo, Sinapis arvensis; conditions: lowest tested rate with 80% or greater inhibition; rates 300, 100, 30, 10 g/ha; about 14 days
Summary of the method: as §7

ECHCG (barnyardgrass) = test: Pre-emergence herbicidal activity, warm season; assay type: in vivo, Echinochloa crus-galli; conditions: GR80 = lowest tested rate (300, 100, 30, 10 g/ha) with 80% or greater inhibition; approx. 14 days after treating; 30/21° C.
Summary of the method: as §1

BROTE (downy brome) = test: Pre-emergence herbicidal activity, cool season; assay type: in vivo, Bromus tectorum; conditions: GR80 = lowest tested rate (300, 100, 30, 10 g/ha) with 80% or greater inhibition; approx. 14 days after treating; 18/13° C.
Experimental: as §2, §3, §4, §5

[5] = test system: VERPE (creeping speedwell); test: Pre-emergence herbicidal activity, cool season; assay type: in vivo, Veronica persicaria; conditions: lowest tested rate with 80% or greater inhibition; rates 300, 100, 30, 10 g/ha; about 14 days
Summary of the method: as §7

POLCO (wild buckwheat) = test: Pre-emergence herbicidal activity, cool season; assay type: in vivo, Polygonum convolvulus; conditions: lowest tested rate with 80% or greater inhibition; rates 300, 100, 30, 10 g/ha; about 14 days
Summary of the method: as §6

[6] = test system: SORHA (johnsongrass (seedling)); test: Pre-emergence herbicidal activity, warm season; assay type: in vivo, Sorghum halepense; conditions: GR80 = lowest tested rate (300, 100, 30, 10 g/ha) with 80% or greater inhibition; approx. 14 days after treating; 30/21° C.
Summary of the method: as §1

SOLNI (black nightshade) = test: Pre-emergence herbicidal activity, warm season; assay type: in vivo, Solanum nigrum; conditions: GR80 = lowest tested rate (300, 100, 30, 10 g/ha) with 80% or greater inhibition; approx. 14 days after treating; 30/21° C.
Summary of the method: as §7

AMARE (redroot pigweed) = test: Pre-emergence herbicidal activity, warm season; assay type: in vivo, Amaranthus retroflexus; conditions: GR80 = lowest tested rate (300, 100, 30, 10 g/ha) with 80% or greater inhibition; approx. 14 days after treating; 30/21° C.
Summary of the method: as §7

[7] = test system: BRAPP (broadleaf signalgrass); test: Pre-emergence herbicidal activity, warm season; assay type: in vivo, Brachiaria platyphylla; conditions: GR80 = lowest tested rate (300, 100, 30, 10 g/ha) with 80% or greater inhibition; approx. 14 days after treating; 30/21° C.
Summary of the method: as §1

LOLMG (annual ryegrass) = test: Pre-emergence herbicidal activity, cool season; assay type: in vivo, Lolium multiflorum; conditions: GR80 = lowest tested rate (300, 100, 30, 10 g/ha) with 80% or greater inhibition; approx. 14 days after treating; 18/13° C.
Experimental: as §2, §3, §4, §5

[8] = test system: CIRAR (canada thistle (seedling)); test: Pre-emergence herbicidal activity, warm season; assay type: in vivo, Cirsium arvense; conditions: GR80 = lowest tested rate (300, 100, 30, 10 g/ha) with 80% or greater inhibition; approx. 14 days after treating; 30/21° C.
Summary of the method: as §7

SETVI (green foxtail) = test: Pre-emergence herbicidal activity, cool season; assay type: in vivo, Setaria viridis; conditions: GR80 = lowest tested rate (300, 100, 30, 10 g/ha) with 80% or greater inhibition; approx. 14 days after treating; 18/13° C.
Summary of the method: as §7

DIGSA (large crabgrass) = test: Pre-emergence herbicidal activity, warm season; assay type: in vivo, Digitaria sanguinalis; conditions: GR80 = lowest tested rate (300, 100, 30, 10 g/ha) with 80% or greater inhibition; approx. 14 days after treating; 30/21° C.
Summary of the method: as §6

POROL (common purslane) = test: Pre-emergence herbicidal activity, warm season; assay type: in vivo, Portulaca oleracea; conditions: GR80 = lowest tested rate (300, 100, 30, 10 g/ha) with 80% or greater inhibition; approx. 14 days after treating; 30/21° C.
Summary of the method: as §7

[9] = test system: CHEAL (common lambsquarters); test: Pre-emergence herbicidal activity, warm season; assay type: in vivo, Chenopodium album; conditions: GR80 = lowest tested rate (300, 100, 30, 10 g/ha) with 80% or greater inhibition; approx. 14 days after treating; 30/21° C.
Summary of the method: as §7

ABUTH (velvetleaf) = test: Pre-emergence herbicidal activity, warm season; assay type: in vivo, Abutilon theophrasti; conditions: GR80 = lowest tested rate (300, 100, 30, 10 g/ha) with 80% or greater inhibition; approx. 14 days after treating; 30/21° C.
Experimental: as §2, §3, §4, §5

ALOMY (blackgrass) = test: Pre-emergence herbicidal activity, cool season; assay type: in vivo, Alopecurus myosuroides; conditions: GR80 = lowest tested rate (300, 100, 30, 10 g/ha) with 80% or greater inhibition; approx. 14 days after treating; 18/13° C.
Summary of the method: as §6

AVEFA (wild oat) = test: Pre-emergence herbicidal activity, cool season; assay type: in vivo, Avena fatua; conditions: GR80 = lowest tested rate (300, 100, 30, 10 g/ha) with 80% or greater inhibition; approx. 14 days after treating; 18/13° C.
Experimental: as §2, §3, §4, §5

CONAR (field bindweed) = test: Pre-emergence herbicidal activity, warm season; assay type: in vivo, Convolvulus arvensis; conditions: GR80 = lowest tested rate (300, 100, 30, 10 g/ha) with 80% or greater inhibition; approx. 14 days after treating; 30/21° C.
Experimental: as §2, §3, §4, §5

COCCN(C)C(=O)n1cnc(S(=O)(=O)C(F)(F)Br)n1 [Example 40]
30 g/ha: Pre-emergence activity (GR80) AGSST [3]
[empty]: Pre-emergence activity GR80, LAMPU [2] | Pre-emergence activity GR80, GALAP [4] | Pre-emergence activity GR80, POLCO (POLCO (wild buckwheat))
300 g/ha: Pre-emergence activity (GR80) SETFA (SETFA (giant foxtail)) | Pre-emergence activity (GR80) PANDI (PANDI (fall panicum)) | Pre-emergence activity (GR80) PANMI [1] | Pre-emergence activity GR80, SASKR (SASKR (russian thistle)) | Pre-emergence activity GR80, STEME (STEME (common chickweed)) | Pre-emergence activity (GR80) ECHCG (ECHCG (barnyardgrass)) | Pre-emergence activity (GR80) SORHA [6]
100 g/ha: Pre-emergence activity GR80, SINAR (SINAR (wild mustard)) | Pre-emergence activity (GR80) BROTE (BROTE (downy brome)) | Pre-emergence activity GR80, VERPE [5]

CCCN(CC)C(=O)n1cnc(S(=O)(=O)C(F)(F)C(F)F)n1 [Example 63]
30 g/ha: Pre-emergence activity GR80, LAMPU [2] | Pre-emergence activity GR80, SASKR (SASKR (russian thistle)) | Pre-emergence activity GR80, GALAP [4] | Pre-emergence activity GR80, STEME (STEME (common chickweed)) | Pre-emergence activity GR80, SINAR (SINAR (wild mustard)) | Pre-emergence activity GR80, VERPE [5]
100 g/ha: Pre-emergence activity (GR80) SETFA (SETFA (giant foxtail)) | Pre-emergence activity (GR80) PANMI [1] | Pre-emergence activity (GR80) AMARE (AMARE (redroot pigweed)) | Pre-emergence activity (GR80) LOLMG (LOLMG (annual ryegrass)) | Pre-emergence activity (GR80) SETVI (SETVI (green foxtail)) | Pre-emergence activity (GR80) ECHCG (ECHCG (barnyardgrass)) | Pre-emergence activity (GR80) CHEAL [9] | Pre-emergence activity (GR80) SORHA [6]
10 g/ha: Pre-emergence activity (GR80) AGSST [3]
300 g/ha: Pre-emergence activity (GR80) SOLNI (SOLNI (black nightshade)) | Pre-emergence activity (GR80) BRAPP [7] | Pre-emergence activity (GR80) CIRAR [8] | Pre-emergence activity (GR80) DIGSA (DIGSA (large crabgrass)) | Pre-emergence activity (GR80) POROL (POROL (common purslane)) | Pre-emergence activity (GR80) ABUTH (ABUTH (velvetleaf)) | Pre-emergence activity GR80, POLCO (POLCO (wild buckwheat)) | Pre-emergence activity (GR80) ALOMY (ALOMY (blackgrass)) | Pre-emergence activity (GR80) AVEFA (AVEFA (wild oat))

O=C(N1CCCC1)n1cnc(S(=O)(=O)C(F)F)n1 [Example 24]
300 g/ha: Pre-emergence activity (GR80) CONAR (CONAR (field bindweed)) | Pre-emergence activity (GR80) CHEAL [9]
[empty]: Pre-emergence activity GR80, LAMPU [2] | Pre-emergence activity GR80, SASKR (SASKR (russian thistle)) | Pre-emergence activity GR80, GALAP [4] | Pre-emergence activity GR80, STEME (STEME (common chickweed)) | Pre-emergence activity GR80, SINAR (SINAR (wild mustard)) | Pre-emergence activity GR80, VERPE [5] | Pre-emergence activity GR80, POLCO (POLCO (wild buckwheat))
100 g/ha: Pre-emergence activity (GR80) BRAPP [7] | Pre-emergence activity (GR80) POROL (POROL (common purslane))
